According to patent US9216965B2, “Amino-quinolines as kinase inhibitors” (GlaxoSmithKline Intellectual Property Development Limited, priority 2012, dated 2015):
pIC50: −log10 of the molar value. Structures can show the parent of a compound that is named as a salt.

Target: T1, RIPK2 (Homo sapiens, UniProt O43353)
T1 construct: Full length FLAG His tagged RIPK2 was purified from a Baculovirus expression system; FLAG (N); 6His (N); made in house; host or cells: Spodoptera frugiperda (Sf9) insect cells, baculovirus
T1 sequence (O43353 whole entry): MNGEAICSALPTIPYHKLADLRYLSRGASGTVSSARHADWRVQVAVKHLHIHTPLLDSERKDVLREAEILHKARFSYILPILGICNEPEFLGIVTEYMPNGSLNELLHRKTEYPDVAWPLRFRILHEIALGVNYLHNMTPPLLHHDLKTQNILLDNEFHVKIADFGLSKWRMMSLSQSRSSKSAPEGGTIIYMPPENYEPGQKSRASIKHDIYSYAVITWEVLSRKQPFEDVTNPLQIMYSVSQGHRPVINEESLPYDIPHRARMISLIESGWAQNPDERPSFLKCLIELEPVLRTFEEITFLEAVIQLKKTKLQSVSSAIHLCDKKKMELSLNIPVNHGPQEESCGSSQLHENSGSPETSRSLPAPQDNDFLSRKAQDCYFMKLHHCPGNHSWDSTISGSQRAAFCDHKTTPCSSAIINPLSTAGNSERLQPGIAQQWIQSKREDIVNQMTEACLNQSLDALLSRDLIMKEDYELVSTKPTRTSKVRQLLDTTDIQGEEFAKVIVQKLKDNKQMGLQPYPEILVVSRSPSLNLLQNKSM
Test: Fluorescent polarization based binding assay at the ATP binding pocket of RIPK2
Conditions: full length FLAG His tagged RIPK2; competition with fluorescently labeled ATP competitive ligand (5 nM); mean of a minimum of 2 experiments
Experimental: A fluorescent polarization based binding assay was developed to quantitate interaction of novel test compounds at the ATP binding pocket of RIPK2, by competition with a fluorescently labeled ATP competitive ligand. Full length FLAG His tagged RIPK2 was purified from a Baculovirus expression system and was used at a final assay concentration of twice the KDapparent. […] Both the enzyme and ligand were prepared in solutions in 50 mM HEPES pH7.5, 150 mM NaCl, 10 mM MgCl2, 1 mM DTT, and 1 mM CHAPS. Test compounds were prepared in 100% DMSO and 100 nL was dispensed to individual wells of a multiwell plate. Next, 5 ul RIPK2 was added to the test compounds at twice the final assay concentration, and incubated at rt for 10 min. Following the incubation, 5 ul of the fluorescent labeled ligand solution, was added to each reaction, at twice the final assay concentration, and incubated at rt for at least 10 min. Finally, samples were read on an instrument capable of measuring fluorescent polarization. Test compound inhibition was expressed as percent (%) inhibition of internal assay controls.
For concentration/dose response experiments, normalized data were fit and pIC50s determined using conventional techniques.
Gateway® LR cloning was used to site-specifically recombine RIPK2 downstream to an N-terminal FLAG-6His contained within the destination vector pDEST8-FLAG-His6 according to the protocol described by Invitrogen. Transfection into Spodoptera frugiperda (Sf9) insect cells was performed using Cellfectin® (Invitrogen), according to the manufacturer's protocol.

Row | Compound | pIC50
1 | Cc1n[nH]c(Nc2ccnc3cc(OC[C@@H](C)O)c(S(=O)(=O)C(C)(C)C)cc23)c1C [2(R), (R)-1-((6-(tert-Butylsulfonyl)-4-((3,4-dimethyl-1H-pyrazol-5-yl)amino)quinolin-7-yl)oxy)propan-2-ol, hydrochloride] | 8.50
2 | Cc1n[nH]c(Nc2ccnc3cc(F)c(S(=O)(=O)C(C)(C)C)cc23)c1C [Example 10, 6-(tert-Butylsulfonyl)-N-(3,4-dimethyl-1H-pyrazol-5-yl)-7-fluoroquinolin-4-amine] | 7.80
3 | Cc1n[nH]c(Nc2ccnc3cc(OCC(F)F)c(S(=O)(=O)C(C)(C)C)cc23)c1C [Example 5, 6-(tert-Butylsulfonyl)-7-(2,2-difluoroethoxy)-N-(3,4-dimethyl-1H-pyrazol-5-yl)quinolin-4-amine] | 8.30

Next, values leading:

Row | pIC50 | Compound
4 | 8.30 | Cc1[nH]nc(Nc2ccnc3cc(OCC(F)(F)F)c(S(=O)(=O)C(C)(C)C)cc23)c1C [Example 7, 6-(tert-butylsulfonyl)-N-(4,5-dimethyl-1H-pyrazol-3-yl)-7-(2,2,2-trifluoroethoxy) quinolin-4-amine]
5 | 8.40 | COCCCOc1cc2nccc(Nc3[nH]nc(C)c3C)c2cc1S(=O)(=O)C(C)(C)C [Example 6, 6-(tert-Butylsulfonyl)-N-(3,4-dimethyl-1H-pyrazol-5-yl)-7-(3-methoxypropoxy)quinolin-4-amine]
6 | 8.40 | Cc1n[nH]c(Nc2ccnc3cc(OCC(C)O)c(S(=O)(=O)C(C)(C)C)cc23)c1C (racemic) [Example 1, 1-((6-(tert-Butylsulfonyl)-4-((3,4-dimethyl-1H-pyrazol-5-yl)amino)quinolin-7-yl)oxy)propan-2-ol]
7 | 8.50 | Cc1n[nH]c(Nc2ccnc3cc(OC[C@H](C)O)c(S(=O)(=O)C(C)(C)C)cc23)c1C [2(S), (S)-1-((6-(tert-butylsulfonyl)-4-((3,4-dimethyl-1H-pyrazol-5-yl)amino)quinolin-7-yl)oxy)propan-2-ol, hydrochloride]
8 | 8.20 | Cc1n[nH]c(Nc2ccnc3cc(OCC(C)(C)O)c(S(=O)(=O)C(C)(C)C)cc23)c1C [Example 4, 1-((6-(tert-Butylsulfonyl)-4-((3,4-dimethyl-1H-pyrazol-5-yl)amino)quinolin-7-yl)oxy)-2-methylpropan-2-ol]
